Measured values: patent publication US20200289611A1, “Methods and Compositions for the Inhibition of Quorum Sensing in Bacterial Infections” (priority 2016, published 2020)
Entries after “also recorded” stand apart in the source; their conditions may differ. Where two headings read alike, the source gives them in different places.

What was measured:
[1] = system: agr (P3-YFP reporter strains, agr types I-IV); assay: agr P3-YFP reporter quorum quenching assay; format: cell-based, Staphylococcus aureus
Method: (§1) Apicidin was tested for quorum quenching activity against all four agr types using P3-YFP reporter strains AH1677 (type I), AH430 (type II) AH1747 (type III), and AH1872 (type IV). (28) Overnight cultures of reporter strains that were grown in TSB supplemented with Cam were inoculated at a dilution of 1:250 into fresh TSB containing Cam. 100 μL, aliquots were added to 96-well microtiter plates containing 100 μL aliquots of TSB containing Cam and 2-fold serial dilutions of apicidin. Readings were recorded at 30 min increments using a Tecan Systems Infinite M200 plate reader.

S. aureus LAC = assay: Bacterial growth (OD) in reporter time course; format: cell-based, Staphylococcus aureus
Method: as §1
Overnight cultures of agr strain types I, II, III, and IV were inoculated 1:500 into 5 ml of TSB (in 17×150 mm culture tubes) containing apicidin at concentrations of 100, 50, 25, 12.5, and 6.25 μg mL (28). All cultures were incubated at 37° C. with shaking (250 rpm), and growth was monitored by periodically transferring 100 μL of culture to a 96-well microtiter plate and reading OD600 in a Tecan Systems Infinite M200 plate reader. […] To quantify hemolytic activity, the filter sterilized culture supernatants from apicidin treated cultures were serially in TSB, and 50 μL aliquots were dispensed in quadruplicate into 96-well microtiter plates. […] Hemolysis was detected by the loss of turbidity as measured at OD630 using a Tecan Infinite M200 plate reader.

[2] = system: agr systems of Staphylococcus epidermidis isolates of each agr-type; assay: agr-P3 reporter strains of S. epidermidis; format: cell-based
[3] = system: AIP signal biosynthesis (AgrB/AgrD); assay: Mass spectrometric measurement of AIP production (agrBD in agr null LAC); format: cell-based, Staphylococcus aureus; details: apicidin treated vs vehicle cultures
Method: (§2) To investigate the mechanisms by which apicidin inhibits quorum sensing, a series of in vitro assays were conducted to systematically assess the relative contribution of each of the core genetic elements of the agrBDCA operon (FIG. 13A). The membrane embedded peptidase AgrB, is responsible for processing the AgrD pro-peptide (immature AIP) for extracellular release. To determine if apicidin inhibits agr signaling at the level of AIP signal generation, an established system was used whereby the agrBD genes (under sarA P1 promoter regulation), were integrated into an agr null strain derived from the USA300 isolate LAC (40). This construct enables alterations to AIP signal biosynthesis to be clearly delineated from regulation stemming from signal integration. […] Next, the possibility that apicidin interferes with the sensory activity of AIP receptor AgrC was explored. For this, a R235H construct bearing a point mutation that confers constitutive AgrC activity, and thereby enables phospho-activation of AgrA to occur independently of AIP binding, was employed. […] Next, it was determined if AgrA serves as the target of apicidin. To this end, an agr null reporter construct, whereby agrP3 lux activation can only be achieved through the constitutive production of plasmid encoded AgrA […], was employed. […]

AgrC = assay: Constitutive AgrC mutant (R235H) assays; format: cell-based, Staphylococcus aureus
Method: as §2

AgrA = target: T1, AgrA (Staphylococcus aureus, UniProt P0A0I7); assay: agr null agrP3 lux reporter with plasmid encoded AgrA; format: cell-based; details: agr null strain
T1 construct: expressed in transfected cells; host or cells: agr null S. aureus agrP3-lux reporter strain
T1 sequence (P0A0I7 whole entry): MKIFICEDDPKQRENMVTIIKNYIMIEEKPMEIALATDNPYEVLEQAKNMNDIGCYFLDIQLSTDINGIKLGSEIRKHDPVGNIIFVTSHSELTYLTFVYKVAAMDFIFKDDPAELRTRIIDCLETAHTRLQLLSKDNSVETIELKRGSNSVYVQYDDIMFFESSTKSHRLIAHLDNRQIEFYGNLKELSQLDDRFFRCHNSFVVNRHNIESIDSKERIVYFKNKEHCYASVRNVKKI
Method: as §2

MRSA transcriptome (LAC) = assay: RNA-seq of WT LAC cultures; format: cell-based, Staphylococcus aureus
Method: Cultures of LAC and LAC ? agr were grown in TSB with DMSO alone or 100 µM apicidin (diluted in neat DMSO). All four cultures were grown to optical density of 1.4 at 600 nm, and the RNA was purified. The samples were subjected to DNase treatment and sample was quality was affirmed via Bioanalyzer (Agilent). […] was depleted with a Ribo-Zero rRNA Removal Kit from gram positive bacteria (Illumina). cDNA libraries were generated at the University of Iowa Genomics Division using the TruSeq Stranded mRNA Library Prep kit (Illumina). Sample were barcoded, pooled and sequenced in a 100×100 pared end reads using HiSeq_FPR3757 genome sequence using SeqMan NGen (DNASTAR) and the alignment were analyzed using ArrayStar (DNASTAR).
To evaluate the impact of apicidin upon global transcriptional regulation RNA-seq analysis upon WT LAC cultures grown in the presence of apicidin or vehicle was conducted. For purposes of comparing the effects of apicidin upon the MRSA transcriptome with those resulting from agr deletion, parallel RNA seq-analysis of WT and Δagr preparations were performed. A four-fold cutoff as the threshold for differential gene expression was used, and apicidin altered the expression of thirty transcripts, with >50% of these representing prototypical agr targets such hla, RNAIII, psms, and spl genes (FIG. 10).

MRSA (USA300 LAC) = assay: Intradermal MRSA skin infection model; format: in vivo, mice (C57BL/6 and BALB/c); details: for cutaneous bacterial burden: Lux+ MRSA bioluminescence (IVIS)
Method: At D0, age, strain and sex matched mice were anesthetized with isoflurane, abdominal skin was carefully shaved and exposed skin was cleansed by wiping with an alcohol prep pad. For inoculum preparation, a USA 300 MRSA strain (AH1263), its deletion mutant, LAC strains engineered for constitutive bioluminescence via lux operon insertion (AH3700) or the Lux+ LAC engineered to constitutively express red fluorescent protein (AH 3868), green fluorescent protein (AH3669) were grown to mid-log-phase, pelleted and resuspended in DPBS to achieve 50 μl inoculum mixtures that contained either 2×10^7 CFUs+/−5 μg apicidin (diluted in neat DMSO). Apicidin or DMSO containing inoculums were injected intradermally into abdominal skin. Baseline body weights of mice were measured before infection and every day thereafter for a period of 7 days. For determination of lesion size, digital photos of skin lesions were taken daily and analyzed via ImageJ software.
The potent in vitro activity of apicidin encouraged an assessment of its efficacy in vivo. To this end, an intradermal challenge model was employed by delivering a single 5 μg dose of apicidin along as part of the inoculum suspension containing 2×10^7 MRSA organisms.

[4] = system: agr activation of LAC agr-P3 lux; assay: Measurement of quorum quenching in vivo (agr-P3 lux reporter strain); parameters: species or system mice
Method: Inoculum preparation for assessing quorum quenching in vivo: An LAC reporter strain engineered to couple agr activation with bioluminescence, agr-P3 lux (AH2759) was grown in TSB medium+chloramphenicol, overnight at 37° C. in a shaking incubator set to 200 rpm. Overnight cultures were diluted 1:100 TSB+chloramphenicol and subcultured to an optical density of 0.1 at 600 nm hr). Bacterial cells were the pelleted and resuspended in sterile saline. […] Using the image analysis tools in living image software, circular analysis windows (of uniform area) were overlaid onto abdominal regions of interest (as depicted in FIG. 8e) and the corresponding bioluminescence values (total flux) were measured and plotted vs. time after infection.
To this end, mice with an agr-P3 lux reporter strain were challenged and carefully monitored the kinetics of agr activation over a six-hour period immediately following infection.

[5] = system: polymorphonuclear neutrophils (PMN) at MRSA infected skin; assay: Flow cytometry of PMNs in infected skin; format: in vivo, mice
Method: For skin: abdominal skin ulcerations were excised and incubated in trypsin (0.6% in PBS) for 75 min at 37° C.; then cut into small pieces and incubated in Collagenase type II (0.5 mg/ml RPMI) for 90 min at 37° C. Skin cell suspensions were generated by serial passage of skin fragments through 18 and 20 gauge syringes. IN cell suspensions were generated mincing inguinal LNs with a razor blade before by serial passage of skin fragments through 18 and 20 gauge syringes. AU tissue preps were passed through a 70 am filter before immune cell staining. For whole blood: blood was collected, washed and resuspended in Tris-buffered ammonium chloride to lyse red blood cells.
For staining of skin, LN and whole blood preparations, the following antibodies: Anti-Ly6G (AI8), Anti-Ly6C (HK1.4), -CD11b (M1/70), CD45 (30-F11) were purchased from BioLegend. To block nonspecific binding, cells were incubated with rat anti-mouse CD16/32 FcγRIII/II (2.4G2) and vortexed prior to surface staining. In all experiments, LN or blood cells were collected on a FACS LSR using Cellquest software, and analyzed via FlowJo software. Dead cells were excluded by low forward-scatter and side-light scatter. Spectral overlaps between fluorochrome channels were corrected by automated compensation on singly stained, positive controls for each fluorochrome. In general, 50,000 cells were collected/tube. Flow cytometric analyses of agr-interference in bacterial cultures were conducted.

[6] = system: CXCL-2 and G-CSF in lesional tissue; assay: Cytokine measurements from tissue homogenates; format: in vivo, mice; details: lesional tissue one day after infection
Method: Biopsy punches (4 mm), obtained from the center of skin ulcerations 1 day after infection, were homogenized with in sterile RPMI with proteinase inhibitor cocktail. The supernatants from these preparations were incubated with a multiplex bead array for IL-1β, G-CSF, KC (CXCL1), and CXCL2. Data were collected on a Luminex 200 (Luminex, Austin, Tex., USA) and analyzed with […]

## CCC(=O)CCCCC[C@@H]1NC(=O)[C@H]2CCCCN2C(=O)[C@H](C(C)CC)NC(=O)[C@H](Cc2cn(OC)c3ccccc23)NC1=O (stereo partly drawn) [apicidin]
[1]
  agr inhibition relative to its analogues: showed the most impressive actions as an agr inhibitor
[1]; across S. aureus isolates
  MICs for quorum sensing inhibition: low micromolar
[1]; agr P3 driven YFP expression, time course
  agr-type dependence of quorum quenching potency: types II and IV representing the most sensitive and resistant respectively
[1]; agr types I-IV reporter strains
  inhibition of quorum sensing (agr P3 reporter): inhibited quorum sensing activity across S. aureus isolates; also recorded: inhibition extends to all 4 agr types; also recorded: inhibited the quorum sensing responses of multiple agr types
[1]; all agr types
  IC50 of agr-inhibition: μM concentrations that were sub-inhibitory for growth
S. aureus LAC
  growth inhibition / bactericidal effect: non-bactericidal; also recorded: minimal growth inhibition
[2]
  quorum quenching in S. epidermidis: extend to multiple staphylococcal species
[2]; listed as Apicidin
  quorum quenching in S. epidermidis: quorum sensing inhibition across S. epidermidis agr types
[3]
  effect on AIP production: does not target AIP signal biosynthesis; also recorded: does not alter the release of AIP signals
AgrC
  quorum quenching in agr-P3 reporter strain with constitutive AgrC activity: maintenance of potent quorum quenching activity
AgrC; RBC lysis, R235H strain
  inhibition of lytic activity, constitutive AgrC mutant: dose dependent inhibition of lytic activity
AgrA
  inhibition of AgrA-dependent agr-P3 reporter activation: dose dependent inhibition of agr-P3 driven bioluminescence; also recorded: inhibited agr-P3 reporter activation
MRSA transcriptome (LAC)
  transcriptional signature: narrowly focused upon the agr virulon; also recorded: largely confined to agr-regulated transcripts
MRSA transcriptome (LAC); 100 uM apicidin, four-fold cutoff
  number of transcripts with altered expression: thirty
MRSA transcriptome (LAC); four-fold cutoff
  share of altered transcripts that are prototypical agr targets: > 50%
MRSA (USA300 LAC)
  cutaneous bacterial burden: reduced; also recorded: decrease in bacterial burden was observed throughout the experiment
MRSA (USA300 LAC); listed as Apicidin
  cutaneous bacterial burden: reduced cutaneous bacterial burden
MRSA (USA300 LAC); one day after infection
  CFUs recovered from lesional skin: significantly fewer CFUs were recovered
MRSA (USA300 LAC); single 5 ug dose with 2x107 MRSA, intradermal, 14 days
  skin lesion / dermatopathology: significantly reduced MRSA-induced dermatopathology
[4]; 14-day period
  skin ulcers after agr-P3 lux reporter strain challenge: dramatic reduction in dermatopathology
[4]; agr-P3 lux reporter, 5 ug apicidin, first hours after infection
  agr activation in vivo: reduced quorum sensing activity in vivo; also recorded: significant interference of agr activation in vivo; also recorded: high level of agr interference
[5]; 24 hours post infection
  PMN density / accumulation at infected skin: enhanced; also recorded: increased the density of PMNs within infected wounds; also recorded: augmenting their accumulation
[5]; DsRed+ MRSA
  frequency of PMN able to phagocytose MRSA: Though not significantly, a trend showing increased frequency
[5]; lesional skin preparations
  number of PMNs that phagocytosed MRSA: increased; also recorded: overall enhancement MRSA uptake within the entire network of cutaneous PMNs
[5]; lesional skin, one day after infection
  frequency of apoptotic PMNs: decrease in the frequency of apoptotic PMNs
[6]
  production of CXCL-2: decrease
  production of G-CSF: decrease
